Assay results reported in patent US12023319B2, “Carboxylic acid aromatic amides” (priority 2016, dated 2024).

Columns and labels:
[1] = molecular target: T1, human Bradykinin B1 receptor (Homo sapiens, UniProt P46663); test: Calcium flux assay (FLIPR), CHO-K1 cells expressing human Bradykinin B1 receptor, absence of 0.1% BSA (hB1 free IC50); assay type: cell-based; details: absence of 0.1% BSA in assay buffer
T1 construct: host or cells: CHO-K1
T1 sequence (P46663 1-353): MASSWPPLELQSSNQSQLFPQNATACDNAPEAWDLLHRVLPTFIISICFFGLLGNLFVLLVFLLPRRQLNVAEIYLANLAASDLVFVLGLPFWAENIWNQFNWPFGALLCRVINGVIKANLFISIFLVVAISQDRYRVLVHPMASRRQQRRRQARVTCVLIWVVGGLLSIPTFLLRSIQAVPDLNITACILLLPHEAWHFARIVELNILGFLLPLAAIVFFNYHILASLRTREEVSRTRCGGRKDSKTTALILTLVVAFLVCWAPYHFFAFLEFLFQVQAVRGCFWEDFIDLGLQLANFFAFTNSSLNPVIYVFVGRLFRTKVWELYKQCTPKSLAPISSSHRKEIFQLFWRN
Outline: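 Peak FLIPR fluorescence (538 nm) after B1 agonist peptide addition gave IC50s, scaled between DMSO and full block by 20 µM Lys-(Des-Arg-Leu)-Bradykinin. Compounds were preincubated 30 min at 28° C with calcium-dye-loaded CHO-K1 cells expressing human B1, at 8 concentrations in triplicate, 1% DMSO final.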

male Lewis rats = test: In vivo adjuvant-induced arthritis (AIA) model; parameters: species or system rat
From the text: 10. In Vivo Adjuvant-Induced Arthritis (AIA) Model
The AIA model is characterized by a rapid onset and progression to polyarticular inflammation. Following the injection of CFA, signs of arthritis usually develop between day 10 and day 14. Typically, the disease is severe and leads to permanent joint malformations, including ankylosis. Joint swelling, lymphocyte infiltration, and cartilage degradation are shared features with human autoimmune arthritis.
To determine the anti-inflammatory activity of the Compound Examples, they were examined for their in vivo efficacy in an arthritis model. For this purpose, male Lewis rats (about 100 to 125 g, Charles River Laboratories, Germany) were each administered 100 μl of a complete Freund's adjuvant (CFA) solution (M. tuberculosis H37Ra [Difo Lab, Cat. No. 231141] dissolved in Incomplete Freund's adjuvant [Difco Lab, Cat. No. 263910]) into the tailhead subcutaneously on day 0. There were n=8 rats in each group. Both, a healthy control group and a disease control group treated with the vehicle only were included in the study. Each control group was given oral (p.o. or PO) treatment only with the vehicle (5% DMSO/95% PBS) of the Compound Examples. The treatment with different dosages of the Compound Examples dissolved in the vehicle was conducted in a preventative manner, i.e. starting from day 0 and continued to day 20, the end of the study, by daily oral administration. On day 0, the starting condition of the animals was determined in terms of the disease activity scores (rating of the severity of arthritis based on a points system). Here, points were awarded according to the extent of joint inflammation from 0 to 4 for the presence of an erythema including joint swelling (0=none; 1=slight; 2=moderate; 3=distinct; 4=severe) for both hind paws and were summed up to a single value. […] In addition, the extent of joint swelling was detected by measuring the ankles of hind paws sagittal×transversal [in mm^2] using an automated caliper (Bayer AG, Germany). Next to this, the grip strength, as a measure for hyperalgesia, using an automated grip strength test meter (IITC Life Science Inc., USA) was evaluated.
Statistical analysis of obtained results for all parameters were done with one way Anova (ANOVA; Analysis of variance) and the comparison to the control group via multiple reference analysis (Dunnett-test).

| Compound | IC50 [1] | also measured |
| --- | --- | --- |
| O=C(O)c1cc(NC(=O)C2(c3ccc(OC(F)(F)F)cc3F)CC2)ccc1-c1ccc(C(F)F)nc1 [Example 5, 2-[6-(Difluoromethyl)pyridin-3-yl]-5-[({1-[2-fluoro-4-(trifluoromethoxy)phenyl]cyclopropyl}carbonyl)amino]benzoic acid] | 86 nM | – |
| O=C(O)c1cc(NC(=O)C2(c3ccc(C(F)(F)F)cc3F)CC2)ccc1-c1cc2ccccc2s1 [Example 1, 2-(1-Benzothiophen-2-yl)-5-[({1-[2-fluoro-4-(trifluoromethyl)phenyl]cyclopropyl}carbonyl)amino]benzoic acid] | 6.5 nM | – |
| O=C(O)c1cc(NC(=O)C2(c3ccc(C(F)(F)F)cc3F)CC2)cc(F)c1-c1ccc(C(F)(F)F)nc1 [Example 29, 3-Fluoro-5-[({1-[2-fluoro-4-(trifluoromethyl)phenyl]cyclopropyl}carbonyl)amino]-2-[6-(trifluoromethyl)pyridin-3-yl]benzoic acid] | 13 nM | – |
| O=C(O)c1cc(NC(=O)C2(c3ccc(C(F)(F)F)cc3F)CC2)ccc1-c1cnn(C2CCC2)c1 [Example 3, 2-(1-Cyclobutyl-1H-pyrazol-4-yl)-5-[({1-[2-fluoro-4-(trifluoromethyl)phenyl]cyclopropyl}carbonyl)amino]benzoic acid] | 18 nM | dose-dependency in the adjuvant-induced arthritis (AIA) model (male Lewis rats; 60, 15 or 3 mg/kg QD p.o., day 0 to day 20): clear dose-dependency; severity of rat AIA (male Lewis rats; oral treatment with 60 mg/kg once daily): significantly inhibited; disease activity score (male Lewis rats; rat AIA model, oral once daily, FIG. 14A): reduction; extent of joint swelling (male Lewis rats; rat AIA model, oral once daily, FIG. 14B): reduction; grip strength (hyperalgesia) (male Lewis rats; rat AIA model, oral once daily, FIG. 15): increase |

More lines, in order of falling IC50 [1], values ahead:

| IC50 [1] | Compound | also measured |
| --- | --- | --- |
| 210 nM | O=C(O)c1cc(NC(=O)C2(c3ccc(C(F)(F)F)cc3F)CC2)ccc1-c1ccc(C(F)(F)F)nc1 [Example 6, 5-[({1-[2-Fluoro-4-(trifluoromethyl)phenyl]cyclopropyl}carbonyl)amino]-2-[6-(trifluoromethyl)pyridin-3-yl]benzoic acid] | – |
| 24 nM | CCC(F)(F)c1ccc(-c2ccc(NC(=O)C3(c4ccc(C(F)(F)F)cc4F)CC3)cc2C(=O)O)cn1 [Example 2, 2-[6-(1,1-Difluoropropyl)pyridin-3-yl]-5-[({1-[2-fluoro-4-(trifluoromethyl)-phenyl]cyclopropyl}carbonyl)amino]benzoic acid] | – |
| 6.3 nM | O=C(O)c1cc(NC(=O)C2(c3ccc(C(F)(F)F)cc3F)CC2)cc(F)c1-c1cnn(C2CCC2)c1 [Example 42, 2-(1-Cyclobutyl-1H-pyrazol-4-yl)-3-fluoro-5-[({1-[2-fluoro-4-(trifluoromethyl)phenyl]cyclopropyl}carbonyl)amino]benzoic acid] | – |
